The text below walks through data of patent US3992533A, “O-ethyl-S-N-propyl-O-(2-chloro-4-bromophenyl)-thiophosphate” (priority 1971, dated 1976).

Read-outs that look alike come from different tables or passages of the source.

In one data set the test system is cotton pests. Nature of the data set: Comparison of activity with closest known compounds. Conditions: on at least the same toxicity level; especially initial effect towards cotton pests. The class given is in vivo.
In data set [1] the test system is third instar larvae of Heliothis virescens. Nature of the data set: Insecticidal test on sprayed potted cotton and tobacco plants, initial and residual effect. The class given is in vivo. How it is done:
Potted cotton and tobacco plants respectively were sprayed with 125 ppm of active ingredient in the form of an aqueous emulsion. After the coating had dried, the treated plants were infested with third instar larvae of Heliothis virescens. The tests were running under greenhouse conditions at 24° C and 60% relative humitidy. Assessments to evaluate the initial effect of the immediate acitivity of the active ingredient were carried out 4, 24 and 48 hours after the infestation of the plants with the pests. Assessments to evaluate the […] of the activity over a prolonged period of the active ingredient were carried out as follows: the coated test plants were infested with the test individuals 2 and 8 days respectively after the application of the active ingredient. Each test was checked after 4, 24 and 48 hours. Test compounds

Another data set concerns Rhyzoperta dominica. The data set can be described thus: Talcum dust on filter paper, dosage for 100% control within 24 hours. The class given is in vivo. To be noted: 5% talcum dust on filter paper. How it is done: (§1) A dust on a base of talcum and containing 5% active ingredient was applied to filter paper in concentrations of 100, 50, 25, 12.5 6.2 and 3.1 mg of active substance per m^ 2. Onto each of the treated substrates were applied 5 Necrobia rufipes, Rhyzoperta dominica, Anthrenus vorax and Tribolium confusum individuals respectively. Evaluation took place 24 hours later. Test compounds were same as set forth in Example 2.

In a further data set the test system is Anthrenus vorax. Described as above. The class given is in vivo. Conditions: 5% talcum dust on filter paper. How it is done:
as §1

A further data set relates to Tribolium confusum. The data set is described as above. The class given is in vivo. Conditions: 5% talcum dust on filter paper. The procedure:
as §1

Another data set has as its system Necrobia rufipes. The data set is described as above. The class given is in vivo. Conditions: 5% talcum dust on filter paper. How it is done: as §1
The subject of a further data set is Tetranychus urticae. Nature of the data set: Acaricidal action on Phaseolus vulgaris. The class given is in vivo. To be noted: larvae, adults and eggs evaluated after 7 days; greenhouse 25° C. How it is done: The number of living and dead larvae, adults and eggs were evaluated after 7 days under a stereoscopic microscope and the result expressed in percentages. During the "interim", the treated plants were kept in greenhouse compartments at 25° C.

Data set [2] is described as follows: Acute oral toxicity in rat. To be noted: in vivo, per os.
The mark [3] stands for this setting: 125 ppm aqueous emulsion, initial effect, assessment 4 h after infestation, 24° C, 60% relative humidity, read-out: % mortality, initial, 4 hours.
Setting [4] is: 125 ppm, infested 2 days after application, assessment at 24 h, read-out: % mortality, residual 2d, 24 hours.
The mark [5] stands for this setting: 125 ppm, infested 2 days after application, assessment at 48 h, read-out: % mortality, residual 2d, 48 hours.
The mark [6] stands for this setting: 125 ppm, infested 8 days after application, assessment at 4 h, read-out: % mortality, residual 8d, 4 hours.
Setting [7] is: 125 ppm, infested 8 days after application, assessment at 24 h, read-out: % mortality, residual 8d, 24 hours.
[8] abbreviates: 125 ppm, infested 8 days after application, assessment at 48 h, read-out: % mortality, residual 8d, 48 hours.
Setting [9] is: 125 ppm, initial effect, assessment 24 h after infestation, read-out: % mortality, initial, 24 hours.
Setting [10] is: 125 ppm, initial effect, assessment 48 h after infestation, read-out: % mortality, initial, 48 hours.
The mark [11] stands for this setting: 4 h, read-out: % mortality, residual 2d, 4 hours.

For orientation: mortality means the percentage killed. The LD50 is the dose expected to kill half of the subjects tested. A low value points to greater toxicity. For `CCCSP(=O)(OCC)Oc1ccc(Br)cc1Cl` (centres unmarked) [I, O-ethyl-S-N-propyl-O-(2-chloro-4-bromophenyl)-thiophosphate], the “activities versus the closest known compounds” value in the data set on cotton pests is reported as “surprisingly superior activities”. Moreover, the mortality at 125 ppm in data set [1] (setting [3]) came out at 100%; in data set [1] (125 ppm, infested 2 days after application, assessment at 4 h, read-out: % mortality, residual 2d, 4 hours), 100%; in data set [1] (setting [4]) it was 100%; in data set [1] (setting [5]) it was 100%; in data set [1] (setting [6]) it was 50%; in data set [1] (setting [7]), 100%. In addition, the mortality at 125 ppm in data set [1] (setting [8]), in data set [1] (setting [9]) and in data set [1] (setting [10]) was 100% throughout. Also, the “Dosage needed which provides a 100% control within 24 hours” value was found to be 25 mg a.i./m^2 with Rhyzoperta dominica, 25 mg a.i./m^2 with Anthrenus vorax, 50 mg a.i./m^2 in the data set on Tribolium confusum and 3.1 mg a.i./m^2 in the data set on Necrobia rufipes. For the same compound, in the data set with Tetranychus urticae, the acaricidal activity result is “good activity”. The compound further came in with an LD50 in data set [2] of 400 to 900 mg/kg.

As to `CCCSP(=O)(OCC)Oc1ccc(Br)cc1Br` (centres unmarked) [III, O-ethyl-S-n-propyl-O-(2,4-dibromophenyl)-thiophosphoric acid ester], the mortality at 125 ppm amounted to 75% in data set [1] (setting [3]); 100% in data set [1] (setting [4]); 100% in data set [1] (setting [5]); 0% in data set [1] (setting [6]); 5% in data set [1] (setting [7]); 55% in data set [1] (setting [8]). Further, the figures for the mortality at 125 ppm in data set [1] (setting [9]), in data set [1] (setting [10]) and in data set [1] (setting [11]) were 100%, 100% and 30%, respectively. Further, the “Dosage needed which provides a 100% control within 24 hours” value with Rhyzoperta dominica is recorded as 100 mg a.i./m^2; in the data set on Anthrenus vorax, 100 mg a.i./m^2; in the data set with Tribolium confusum, above 100 mg a.i./m^2; with Necrobia rufipes it was 6.2 mg a.i./m^2. Besides, the LD50 in data set [2] turned out to be 300 mg/kg.

Consider `CCCSP(=O)(OCC)Oc1ccc(Cl)cc1Cl` (centres unmarked) [II, O-ethyl-S-n-propyl-O-(2,4-dichlorophenyl)-thiophosphoric acid ester], for which the mortality at 125 ppm amounted to 80% in data set [1] (setting [3]); 100% in data set [1] (setting [4]); 100% in data set [1] (setting [5]); 30% in data set [1] (setting [6]); 50% in data set [1] (setting [7]); 100% in data set [1] (setting [8]). Further, the mortality at 125 ppm turned out to be 90% in data set [1] (setting [9]), 100% in data set [1] (setting [10]) and 50% in data set [1] (setting [11]). The “Dosage needed which provides a 100% control within 24 hours” value with Rhyzoperta dominica is listed as 50 mg a.i./m^2; in the data set with Anthrenus vorax, 50 mg a.i./m^2; in the data set on Tribolium confusum, 100 mg a.i./m^2; with Necrobia rufipes, 6.2 mg a.i./m^2. For the same compound, in data set [2], the 50% lethal dose (LD50) was 400 mg/kg.
